Data as given in ChEMBL document CHEMBL2074243, “Mitochondria-targeting drug oligomycin blocked P-glycoprotein activity and triggered apoptosis in doxorubicin-resistant HepG2 cells” (Chemotherapy, 2004).

The compounds below were run against ATP-dependent translocase ABCB1 (Homo sapiens, UniProt P08183) (assay: TP_TRANSPORTER: drug resistance in R-HepG2 cells).
Assay type: functional, cell-based

ATP-dependent translocase ABCB1, sequence (P08183 whole entry): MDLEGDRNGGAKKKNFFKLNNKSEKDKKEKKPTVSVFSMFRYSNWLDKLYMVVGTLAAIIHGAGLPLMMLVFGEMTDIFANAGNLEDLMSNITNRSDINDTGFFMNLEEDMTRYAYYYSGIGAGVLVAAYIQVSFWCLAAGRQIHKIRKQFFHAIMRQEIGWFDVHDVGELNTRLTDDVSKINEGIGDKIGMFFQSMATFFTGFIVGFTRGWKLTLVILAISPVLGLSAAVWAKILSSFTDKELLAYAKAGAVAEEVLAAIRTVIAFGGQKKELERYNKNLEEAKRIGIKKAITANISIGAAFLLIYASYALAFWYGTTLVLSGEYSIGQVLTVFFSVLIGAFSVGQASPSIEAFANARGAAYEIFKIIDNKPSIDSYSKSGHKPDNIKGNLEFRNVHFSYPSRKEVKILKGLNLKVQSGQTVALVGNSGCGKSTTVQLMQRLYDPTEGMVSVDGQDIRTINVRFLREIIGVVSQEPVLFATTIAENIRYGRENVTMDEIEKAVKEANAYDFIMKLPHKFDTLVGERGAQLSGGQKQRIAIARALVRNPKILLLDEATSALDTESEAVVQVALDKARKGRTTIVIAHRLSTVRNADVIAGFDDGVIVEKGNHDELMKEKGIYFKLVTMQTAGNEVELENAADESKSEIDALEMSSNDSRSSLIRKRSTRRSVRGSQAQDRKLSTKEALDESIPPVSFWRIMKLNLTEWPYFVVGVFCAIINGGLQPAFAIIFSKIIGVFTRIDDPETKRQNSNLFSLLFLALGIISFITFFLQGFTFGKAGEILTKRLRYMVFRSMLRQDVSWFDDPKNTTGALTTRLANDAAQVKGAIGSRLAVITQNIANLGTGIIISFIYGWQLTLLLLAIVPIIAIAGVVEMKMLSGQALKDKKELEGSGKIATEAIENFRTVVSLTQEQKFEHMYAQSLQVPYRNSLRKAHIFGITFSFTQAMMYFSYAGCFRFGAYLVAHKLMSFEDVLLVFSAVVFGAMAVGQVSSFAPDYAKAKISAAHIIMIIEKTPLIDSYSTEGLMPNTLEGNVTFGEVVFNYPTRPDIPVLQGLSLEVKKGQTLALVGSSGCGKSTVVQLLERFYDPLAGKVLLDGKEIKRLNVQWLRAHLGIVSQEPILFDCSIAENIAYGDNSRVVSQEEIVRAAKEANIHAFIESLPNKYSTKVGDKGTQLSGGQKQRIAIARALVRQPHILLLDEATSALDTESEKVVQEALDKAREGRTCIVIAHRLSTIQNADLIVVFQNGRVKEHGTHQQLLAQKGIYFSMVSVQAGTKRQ

| Compound | Activity |
| --- | --- |
| COc1cccc2c1C(=O)c1c(O)c3c(c(O)c1C2=O)C[C@@](O)(C(=O)CO)C[C@@H]3O[C@H]1C[C@H](N)[C@H](O)[C@H](C)O1 [DOXORUBICIN] | substrate [+] |
| CC(=O)O[C@H]1C(=O)[C@@]2(C)[C@H]([C@H](OC(=O)c3ccccc3)[C@]3(O)C[C@H](OC(=O)[C@H](O)[C@@H](NC(=O)c4ccccc4)c4ccccc4)C(C)=C1C3(C)C)[C@]1(OC(C)=O)CO[C@@H]1C[C@@H]2O [PACLITAXEL] | substrate [+] |
| CISPLATIN | substrate [+] |
